Values quoted from earlier work as cited in US6703390B2, “Sulfur containing dihydrophthalazine antagonists of excitatory amino acid receptors” (Transgenomic, Inc., priority 2000, dated 2004).
Where two headings read alike, the source gives them in different places.

How the values were obtained:
[1] = tested on: middle cerebral artery occlusion (MCAO) model of ischemia
[2] = tested on: common carotid arteries model of global ischemia; conditions: compared with the competitive antagonist NBQX

CC1=NN=C(c2ccc(N)cc2)c2cc3c(cc2C1)OCO3 [GYKI 52466]
reduced cortical infarct volumes ([1]; given continuously for 2 hours just after occlusion): 68% | reduced cortical infarct volumes ([1]; given delayed for one hour after occlusion): 48% | efficacy in MCAO model of ischemia ([1]; given either continuously for 2 hours just after occlusion or delayed for one hour): effective | efficacy in global ischemia model [2]: as effective as the glutamate site competitive antagonist NBQX
